Laboratory results published in US9828351B2, “Enzyme interacting agents” (MONASH UNIVERSITY, priority 2014, dated 2017).
Read-outs that look alike come from different tables or passages of the source.

What was measured:
[1] = biological target: T1, Dihydroceramide Desaturase-1 (Des1) (Homo sapiens, UniProt O15121); assay: Dihydroceramide desaturase-1 (Des1) activity by HPLC in intact Jurkat cells labeled with DhCer-C6-NBD; format: cell-based
T1 construct: These modifications included the use of parental Jurkat cells; endogenous in cells; host or cells: parental Jurkat cells
T1 sequence (O15121 1-323): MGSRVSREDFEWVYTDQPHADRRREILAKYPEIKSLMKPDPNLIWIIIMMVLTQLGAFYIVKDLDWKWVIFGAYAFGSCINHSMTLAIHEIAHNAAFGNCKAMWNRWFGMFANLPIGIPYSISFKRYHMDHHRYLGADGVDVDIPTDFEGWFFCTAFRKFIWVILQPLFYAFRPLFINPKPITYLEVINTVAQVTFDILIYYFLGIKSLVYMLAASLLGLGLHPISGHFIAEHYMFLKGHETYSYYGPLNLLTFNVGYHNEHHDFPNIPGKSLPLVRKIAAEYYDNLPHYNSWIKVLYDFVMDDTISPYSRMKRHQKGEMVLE
Method: Measurement of Dihydroceramide Desaturase-1 (Des1) Activity:
These modifications included the use of parental Jurkat cells, 0.5% serum in the culture media, and cell harvesting via centrifugation at 500×g to maximise ceramide extraction. Extracted samples (50 ul) were analysed on a Waters HPLC coupled to a fluorescence detector using a 30 cm C18 reverse-phase column eluted with 1 ml/min 20% H2O and 80% acetonitrile, both with a 0.1% of trifluoroacetic acid.

[2] = biological target: T2, recombinant his tagged human SphK1 (Homo sapiens, UniProt Q9NYA1); assay: SphK1 activity assay (32P-labelled S1P production); format: biochemical; conditions: 10 μM compound; % of activity compared to control (DMSO vehicle only)
T2 construct: His tag; made in house; host or cells: insect cells (baculovirus system)
Method: (§1) The SphK assays employed, measure SphK activity through the production of ^32P-labelled S1P following the addition of exogenous Sph and [γ^32P] ATP.
(§2) Activities of SphK1 and SphK2 were determined using identical assay conditions with the exception that SphK1 assays used 3 ng/assay recombinant his tagged human SphK1 (made in the lab in a baculovirus system using insect cells), while SphK2 assays used 30 ng/assay recombinant human SphK2 (purchased by Johnson and Johnson).
(§3) Compounds were dissolved in DMSO at 10 mM, the mixture was vortexed (and sonicated if necessary). Stock solutions were kept at 4° C. until used.
(§4) Aliquots were made containing 100 μM drug compound. These aliquots were then diluted in assay buffer: 100 mM tris/HCl pH 7.4, 100 mM NaCl, 1 mM sodium orthovanadate, 10 mM NaF to make up a 10 μM solution.
(§5) Recombinant enzyme was diluted in assay buffer (above) to make up a final concentration of 0.03 ng/μL (SphK1) or 0.33 ng/μL (SphK2).
(§6) 40 μL recombinant enzyme was added to an Eppendorf® Safe-Lock® microcentrifuge tube. This was followed by the addition of drug compound from prepared aliquots, before adding ATP, [γ^32P]ATP and Sph. Note: ATP stock is made up in 1M Tris pH 7.4 and 200 mM MgCl2. This allows ATP to complex with Mg and be available as a substrate.
(§7) The rest of the reaction mixture was then added to the enzyme sample (Table 1). All reactions were performed as triplicates.
(§8) Reaction mixture was prepared with sufficient volume to assay all of the required samples. To do this, each of the volumes shown was multiplied by n+1, where n is the number of samples to be assayed. Assay buffer used is made up of 100 mM tris/HCl pH 7.4, 100 mM NaCl, 1 mM sodium orthovanadate and 10 mM NaF.
(§9) The mixture was then incubated at 37° C. for 20 min (SphK1)/45 min (SphK2).
(§10) To the 100 μL assay mixture, add 270 μl of chloroform/methanol/conc. HCl (100:200:1).
(§11) 20 μL of 5 M KCl was then added to the assay mixture.
(§12) 70 μL of chloroform was added to create phase separation. The solution was vortexed to mix well.
(§13) The solution was then centrifuged for 5 min at 13,000×g to fully separate the phases.
(§14) The upper aqueous/methanol phase was separated by aspiration.
(§15) 50 μL of the remaining lower chloroform phase […] was applied onto the TLC plate by repeatedly spotting a few microliters of liquid (<5 mm diameter circle) between each sample spot with the pipette tip. The liquid was then allowed to absorb into the plate before drying with a stream of air.
(§16) The TLC plate was developed in a glass TLC developing tank with 1-butanol/ethanol/glacial acetic acid/H2O (8:2:1:2) until the mobile phase is within 1 cm of the top of the TLC plate.
(§17) The TLC plate was then exposed to a storage phosphor screen overnight. Storage phosphor screens work by capturing images produced by ionising radiation (e.g. ^32P). The phosphorimager stimulates the screen which uses lasers to convert the latent signal to light. Light is proportional to the amount of radioactivity in the sample. The image is then quantified using standard quantification software (ImageQuant™). Whatman paper with the assay mixture dilutions, was included to assist quantification of the phosphor signal.
(§18) Once the storage phosphor screen was read using the phosphorimager, S1P spots, which have an Rf of 0.7 with the mobile phase employed, were quantified.
(§19) The S1P spot intensity can be converted to the amount of phosphate transferred/min/mg protein.

[3] = tested on: PC3 prostate cancer cell lines; assay: Anticancer activity in PC3 cell line, CellTitre AQueous One cell viability assay; format: cell-based; conditions: Homo sapiens, PC-3; concentration required to inhibit cell proliferation by 50%; 72 hours
Method: Measurement of Anticancer Activity in PC3 Cell Line Assays
PC3 prostate cancer cell lines were cultured in DMEM (containing 10% fetal calf serum and penicillin-streptomycin).
Before treatment with drug compounds, cells were plated at 2,500 cells/well in 96 well plates and incubated at 37° C. with 5% CO2 in a humidified incubator for 24 hours prior. Cells were only plated in columns 3-10 and rows C—F to ensure uniform humidity and warmth across all wells. The remaining wells were filled with 100 μL of phosphate buffered saline.
Drug stock solutions (50 or 10 mM) were diluted×1000 in media to a final concentration of either 50 μM or 10 μM with a DMSO vehicle concentration of 0.1%.
Cell culture supernatants were aspirated and replaced with drug containing media. Drug treatments were performed in duplicate wells, while potential plate layout-specific variation in cell growth was accounted for by addition of a vehicle control (0.1% DMSO).
Cells were then incubated with drug compounds at 37° C. with 5% CO2 in a humidified incubator for 72 hours prior to assay.
Media was diluted with CellTitre AQueous One Solution (Promega, Australia; Cat # G3580) according to manufacturer's instructions to produce a final concentration of 317 μg/mL.
Cell culture supernatants were then aspirated from wells and replaced with 100 μL of CellTitre solution. Triplicate cell-free control wells containing only CellTitre solution were also included in each assay.
Cells were then incubated at 37° C. with 5% CO2 in a humidified incubator for 1 hour at which time absorbance was read at 490 nm with an EnVision microplate reader (Perkin Elmer, Australia).
When analysing data, background absorbance (taken from cell-free control wells) was subtracted from each reading. […] For each drug concentration the mean (±SEM) is calculated and graphed using GraphPad Prism (version 5). A sigmoidal curved is fitted to the data and used to calculate the IC50 of each compound.

[4] = biological target: T3, recombinant human SphK2 (Homo sapiens, UniProt Q9NRA0); assay: SphK2 activity assay (32P-labelled S1P production); format: biochemical; conditions: 10 μM compound; % of activity compared to control (DMSO vehicle only); read-out: SphK2% actvity at 10 μm
T3 construct: purchased Johnson and Johnson
T3 sequence (Q9NRA0 1-654): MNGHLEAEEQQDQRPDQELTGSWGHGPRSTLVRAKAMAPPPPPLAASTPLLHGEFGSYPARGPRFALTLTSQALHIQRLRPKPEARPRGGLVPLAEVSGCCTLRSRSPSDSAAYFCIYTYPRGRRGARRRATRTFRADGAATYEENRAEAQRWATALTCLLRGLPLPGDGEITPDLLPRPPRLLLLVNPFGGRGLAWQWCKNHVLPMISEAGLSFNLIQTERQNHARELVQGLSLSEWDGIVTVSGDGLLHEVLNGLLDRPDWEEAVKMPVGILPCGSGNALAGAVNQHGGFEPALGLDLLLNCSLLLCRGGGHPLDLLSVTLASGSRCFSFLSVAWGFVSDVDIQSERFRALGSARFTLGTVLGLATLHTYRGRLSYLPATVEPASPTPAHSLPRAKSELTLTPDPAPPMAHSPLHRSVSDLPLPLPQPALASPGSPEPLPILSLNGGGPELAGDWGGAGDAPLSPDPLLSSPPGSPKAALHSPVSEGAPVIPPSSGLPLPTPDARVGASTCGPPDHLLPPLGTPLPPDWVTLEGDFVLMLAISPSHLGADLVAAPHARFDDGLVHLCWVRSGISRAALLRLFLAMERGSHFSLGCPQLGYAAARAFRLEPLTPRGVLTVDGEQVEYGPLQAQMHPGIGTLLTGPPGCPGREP
Method: as §1, §2, §3, §4, §5, §6, §7, §8, §9, §10, §11, §12, §13, §14, §15, §16, §17, §18, §19

[5] = intact Jurkat cells, read-out: Des 1 IC50

T2 sequence (Q9NYA1 whole entry): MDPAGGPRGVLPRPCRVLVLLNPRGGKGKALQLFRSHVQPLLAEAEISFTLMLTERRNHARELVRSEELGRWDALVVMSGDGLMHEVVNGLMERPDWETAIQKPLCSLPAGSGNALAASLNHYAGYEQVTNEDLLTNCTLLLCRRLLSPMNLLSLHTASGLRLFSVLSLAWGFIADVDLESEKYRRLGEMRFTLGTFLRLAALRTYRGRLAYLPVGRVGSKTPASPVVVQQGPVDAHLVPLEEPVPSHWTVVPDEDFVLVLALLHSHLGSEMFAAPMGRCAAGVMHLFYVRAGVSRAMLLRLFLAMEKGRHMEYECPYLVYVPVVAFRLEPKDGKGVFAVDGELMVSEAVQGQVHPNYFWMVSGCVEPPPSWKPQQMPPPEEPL

Structure (SMILES)	IC50 [1, 5]	activity at 10 µM [2]	IC50 [3]	remaining activity at 10 µM [4]	other results
Oc1ccc(Nc2nc(-c3ccc(Cl)cc3)no2)cc1 [Example E-4, 4-((3-(4-Chlorophenyl)-1,2,4-oxadiazol-5-yl)amino)phenol]	1 to 10 µM	–	–	–	–
Cc1nc(-c2ccc(Nc3nnc(-c4ccc(Cl)cc4)o3)cc2)no1 [Example E-10, 5-(4-Chlorophenyl)-N-(4-(5-methyl-1,2,4-oxadiazol-3-yl)phenyl)-1,3,4-oxadiazol-2-amine]	–	80 to 100%	> 100 µM	50 to 80%	–
O=C(Nc1ccc(-c2nnc(-c3ccc(Cl)cc3)o2)cc1)[C@H]1NCC[C@@H]1O [Example E-12, (2S,3S)-2-((4-(5-(4-chlorophenyl)-1,3,4-oxadiazol-2-yl)phenyl)carbamoyl)-3-hydroxypyrrolidin-1-ium chloride]	–	50 to 80%	> 100 µM	20 to 50%	–
Oc1ccc(Nc2nnc(-c3ccc(Cl)cc3)s2)cc1 [Example E-2, 4-((5-(4-Chlorophenyl)-1,3,4-thiadiazol-2-yl)amino)phenol]	1 to 10 µM	–	–	–	–
N/C(=N\O)c1ccc(Nc2nnc(-c3ccc(Cl)cc3)o2)cc1 [Example E-9, (Z)-4-((5-(4-Chlorophenyl)-1,3,4-oxadiazol-2-yl)amino)-N′-hydroxybenzimidamide]	1 to 10 µM	–	–	–	–
Oc1ccc(Nc2nnc(-c3ccc(C(F)(F)F)cc3)o2)cc1 [Example E-26, 4-((5-(4-(Trifluoromethyl)phenyl)-1,3,4-oxadiazol-2-yl)amino)phenol]	–	–	–	–	IC50 [1]: 0.1 to 1 µM
Cl.N=C(N)c1ccc(Nc2nnc(-c3ccc(Cl)cc3)o2)cc1 [Example E-23, Amino(4-((5-(4-chlorophenyl)-1,3,4-oxadiazol-2-yl)amino)phenyl)methaniminium chloride]	–	–	–	–	Des 1 IC50 ([1]; intact Jurkat cells): inactive
Oc1ccc(Nc2noc(-c3ccc(Cl)cc3)n2)cc1 [Example E-3, 4-((5-(4-Chlorophenyl)-1,2,4-oxadiazol-3-yl)amino)phenol]	1 to 10 µM	–	–	–	–
N=C(N)c1ccc(-c2nnc(-c3ccccc3)o2)cc1 [Example E-17, Amino(4-(5-phenyl-1,3,4-oxadiazol-2-yl)phenyl)methaniminium chloride]	–	200 to 300%	> 100 µM	80 to 100%	–
O=C(Nc1ccc(O)cc1)c1csc(-c2ccc(Cl)cc2)n1 [Example E-6, 2-(4-Chlorophenyl)-N-(4-hydroxyphenyl)thiazole-4-carboxamide]	–	20 to 50%	> 100 µM	50 to 80%	–
Oc1ccc(Nc2nnc(-c3ccc(Cl)cc3)o2)cc1 [Example E-1, 5-(4-Chlorophenyl)-N-(4-hydroxyphenyl)-1,3,4-oxadiazol-2-amine]	0.1 to 1 µM	–	–	–	–

More lines, main results first:

IC50 [1, 5]	activity at 10 µM [2]	IC50 [3]	remaining activity at 10 µM [4]	Structure (SMILES)	other results
–	20 to 50%	10 to 100 µM	50 to 80%	Clc1ccc(-c2nnc(Nc3ccc(-c4nn[nH]n4)cc3)o2)cc1 [Example E-27, 5-(4-Chlorophenyl)-N-[4-(1H-tetrazol-5-yl)phenyl]-1,3,4-oxadiazol-2-amine]	Des 1 IC50 ([1]; intact Jurkat cells): inactive
0.1 to 1 µM	–	–	–	Oc1ccc(Nc2nc(-c3ccc(Cl)cc3)ns2)cc1 [Example E-32, 4-((3-(4-chlorophenyl)-1,2,4-thiadiazol-5-yl)amino)phenol]	–
–	80 to 100%	> 100 µM	20 to 50%	N=C(N)c1ccc(Nc2nnc(-c3ccccc3)o2)cc1 [Example E-20, Amino(4-((5-phenyl-1,3,4-oxadiazol-2-yl)amino)phenyl)methaniminium chloride]	–
0.1 to 1 µM	–	–	–	Oc1ccc(Nc2nsc(-c3ccc(Cl)cc3)n2)cc1 [Example E-31, 4-((5-(4-chlorophenyl)-1,2,4-thiadiazol-3-yl)amino)phenol]	–
–	1 to 5%	> 100 µM	20 to 50%	Clc1ccc(-c2nnc(NCc3ccncc3)o2)cc1 [Example E-30, 5-(4-Chlorophenyl)-N-(pyridin-4-ylmethyl)-1,3,4-oxadiazol-2-amine]	–
1 to 10 µM	–	–	–	Oc1ccc(Nc2nnc(-c3ccc(I)cc3)o2)cc1 [Example E-24, 4-((5-(4-Iodophenyl)-1,3,4-oxadiazol-2-yl)amino)phenol]	–
–	50 to 80%	> 100 µM	80 to 100%	O=C(NCc1ccc(-c2nnc(-c3ccc(Cl)cc3)o2)cc1)[C@H]1NCC[C@@H]1O [Example E-18, (2S,3S)-2-((4-(5-(4-chlorophenyl)-1,3,4-oxadiazol-2-yl)benzyl)carbamoyl)-3-hydroxypyrrolidin-1-ium chloride]	–
